Assay results published in ChEMBL document CHEMBL1201862, “PubChem BioAssay data set” (2004).
Calls of active or inactive are those of the source.

Key:
[1] = biological target: T1, Tyrosine-protein phosphatase non-receptor type 7 (Homo sapiens, UniProt P35236); experiment: redox-active compounds inhibiting HePTP phosphatase – biochemical, fluorescence, mechanism study (AID 2068); type: functional
T1 sequence (P35236 whole entry): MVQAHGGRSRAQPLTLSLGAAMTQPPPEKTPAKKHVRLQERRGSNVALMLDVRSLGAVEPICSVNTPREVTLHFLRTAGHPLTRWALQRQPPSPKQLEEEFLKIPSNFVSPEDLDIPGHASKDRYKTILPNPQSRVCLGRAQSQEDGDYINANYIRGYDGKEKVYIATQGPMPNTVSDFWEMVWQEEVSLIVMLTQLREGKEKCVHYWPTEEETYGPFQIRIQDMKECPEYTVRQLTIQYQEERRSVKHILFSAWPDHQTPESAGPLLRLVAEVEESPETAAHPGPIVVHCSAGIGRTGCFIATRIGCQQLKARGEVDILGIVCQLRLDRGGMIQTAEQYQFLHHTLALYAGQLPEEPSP

[2] = biological target: T2, Dual specificity protein phosphatase 6 (Rattus norvegicus, UniProt Q64346); type: functional;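 also: confirmatory in vitro dose-response testing of MKP-3 inhibition; recombinant His-tagged MKP-3 made in E. coli BL21 with OMFP substrate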
T2 sequence (Q64346 whole entry): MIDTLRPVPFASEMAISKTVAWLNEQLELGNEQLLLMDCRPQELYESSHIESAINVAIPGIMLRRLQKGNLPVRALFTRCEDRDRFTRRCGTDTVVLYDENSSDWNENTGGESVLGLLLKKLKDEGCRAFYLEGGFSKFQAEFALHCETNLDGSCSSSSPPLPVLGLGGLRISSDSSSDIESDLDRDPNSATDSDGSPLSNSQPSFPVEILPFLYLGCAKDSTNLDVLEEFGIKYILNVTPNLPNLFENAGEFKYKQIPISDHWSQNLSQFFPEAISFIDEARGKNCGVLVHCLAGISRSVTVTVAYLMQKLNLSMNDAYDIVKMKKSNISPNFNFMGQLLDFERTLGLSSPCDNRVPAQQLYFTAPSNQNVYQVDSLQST

Hexokinase = Hexokinase (Trypanosoma brucei, UniProt Q38C41); experiment: Confirmation assay for inhibitors of Trypanosoma brucei hexokinase 1-Analogue-first series. [Related pubchem assays (depositor defined):AID1430, AID1632, AID2516, AID2560, AID2579, AID2600, AID449725, AID492951]; type: functional
Mu-type opioid receptor = Mu-type opioid receptor (Homo sapiens, UniProt P35372); experiment: SAR Analysis of Antagonists of the MOR Receptor using an Image-Based Assay - Set 3. [Related pubchem assays (depositor defined):AID1777, AID1785, AID1786, AID1966, AID2133, AID2136, AID2284, AID2285, AID2420]; type: functional
[3] = biological target: T3, Kappa-type opioid receptor (Homo sapiens, UniProt P41145); experiment: SAR analysis of small molecule antagonists of the kappa opioid receptor via a luminescent beta-arrestin assay - Set 4. [Related pubchem assays (depositor defined):AID1777, AID1778, AID1785, AID1786, AID1966, AID2133, AID2136, AID2285]; type: functional
[4] = biological target: Delta-type opioid receptor (Homo sapiens, UniProt P41143); experiment: SAR Analysis of Antagonists of the DOR Receptor using an Image-Based Assay - Set 3. [Related pubchem assays (depositor defined):AID1777, AID1785]; type: functional;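 also: U2OS cells expressing DOR1 and beta-arrestin GFP stimulated with 100 nM SNC80; imaging of GFP-tagged beta-arrestin moving into spots after receptor activation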
[5] = biological target: T3, Kappa-type opioid receptor; experiment: SAR analysis of Antagonists of the Kappa Opioid Receptor (KOR) using an Image-Based Assay - Set 4. [Related pubchem assays (depositor defined):AID1777, AID1785]; type: functional
Trypsin = Trypsin (Sus scrofa, UniProt P00761); experiment: trypsin protease activity blockade – biochemical, quenched peptide fluorescence, cherry-pick, selectivity assay for Rce1 protease inhibitor project, dose response (AID 488789)
CAAX prenyl protease 2 = biological target: T4, CAAX prenyl protease 2 (Saccharomyces cerevisiae S288c, UniProt Q03530); type: biochemical
T4 sequence (Q03530 whole entry): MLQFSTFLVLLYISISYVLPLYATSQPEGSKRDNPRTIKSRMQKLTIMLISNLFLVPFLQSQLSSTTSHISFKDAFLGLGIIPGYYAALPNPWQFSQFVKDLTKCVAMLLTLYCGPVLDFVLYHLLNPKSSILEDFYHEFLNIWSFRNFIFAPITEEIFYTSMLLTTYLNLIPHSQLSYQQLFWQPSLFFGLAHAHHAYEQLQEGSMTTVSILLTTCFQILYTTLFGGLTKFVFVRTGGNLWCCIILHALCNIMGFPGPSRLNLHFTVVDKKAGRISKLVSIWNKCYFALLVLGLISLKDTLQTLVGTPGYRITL

Large T antigen = Large T antigen (Simian virus 40, UniProt P03070); type: functional, Betapolyomavirus macacae;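 also: Confirmatory-stage PubChem screen for compounds that inhibit SV40 T antigen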
[6] = biological target: Induced myeloid leukemia cell differentiation protein Mcl-1 (Homo sapiens, UniProt Q07820); type: functional
ORF 73 = ORF 73 (Human herpesvirus 8, UniProt O40947); experiment: KSHV LANA DNA-binding disruption – biochemical, fluorescence polarization, cherry-picked samples, dose response (AID 504725); parameters: species or system Human gammaherpesvirus 8;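 also: fluorescence polarization of a labeled DNA duplex reporting LANA DNA binding; potency is for inhibitors that block LANA binding to the DNA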
[7] = biological target: DNA (cytosine-5)-methyltransferase 1 (Homo sapiens, UniProt P26358); experiment: inhibition of DNA methylation by DNMT1 – biochemical, fluorescent molecular beacon, confirmation (AID 602386); type: functional
Caspase-6 = biological target: T5, Caspase-6 (Homo sapiens, UniProt P55212); experiment: inhibition of CASP6 peptide cleavage – biochemical, VEID-R110 fluorescence, cherry-pick, dose response (AID 720632)
T5 sequence (P55212 whole entry): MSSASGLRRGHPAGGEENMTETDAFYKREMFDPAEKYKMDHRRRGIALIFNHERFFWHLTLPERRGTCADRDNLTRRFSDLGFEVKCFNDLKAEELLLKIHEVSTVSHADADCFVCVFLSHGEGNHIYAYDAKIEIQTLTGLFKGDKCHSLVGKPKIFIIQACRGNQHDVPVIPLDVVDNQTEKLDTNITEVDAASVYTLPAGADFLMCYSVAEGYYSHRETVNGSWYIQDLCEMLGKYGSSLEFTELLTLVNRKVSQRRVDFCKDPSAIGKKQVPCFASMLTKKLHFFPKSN

[8] = biological target: T6, Neuropeptides B/W receptor type 1 (Homo sapiens, UniProt P48145); experiment: Fluorescence-based dose response cell-based high throughput screening assay to identify antagonists of the G-protein coupled receptor 7 (GPR7). [Related pubchem assays: 1952 (Screening assay (GPR7 antagonists).), 1880 (Summary AID.)]; type: functional
T6 sequence (P48145 whole entry): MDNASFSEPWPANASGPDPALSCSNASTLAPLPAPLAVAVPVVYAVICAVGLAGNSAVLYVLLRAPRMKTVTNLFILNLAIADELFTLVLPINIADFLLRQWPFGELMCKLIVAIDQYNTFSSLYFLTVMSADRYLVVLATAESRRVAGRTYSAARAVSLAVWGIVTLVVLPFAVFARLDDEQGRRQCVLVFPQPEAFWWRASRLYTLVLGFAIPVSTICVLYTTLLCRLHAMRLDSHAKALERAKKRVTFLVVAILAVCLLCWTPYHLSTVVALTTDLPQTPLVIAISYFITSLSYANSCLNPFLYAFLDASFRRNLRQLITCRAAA

[9] = biological target: Melanin-concentrating hormone receptor 1 (Homo sapiens, UniProt Q99705); experiment: Fluorescence-based counterscreen for antagonists of the G-protein coupled receptor 7 (GPR7): cell-based high throughput dose response assay to identify antagonists of the melanin-concentrating hormone receptor 1 (MCHR1).; type: functional
[10] = biological target: G-protein coupled receptor 55 (Homo sapiens, UniProt Q9Y2T6); experiment: selective activators of receptor GPR55 – imaging, U2OS cells, beta-arrestin-GFP redistribution, primary screen (AID 1961); type: functional
[11] = biological target: T7, RNA-binding protein pos-1 (Caenorhabditis elegans, UniProt G5EF15); experiment: disruptors of C. elegans POS-1 RNA interaction – biochemical, fluorescence polarization, dose response (AID 1964);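 also: purified POS-1 fused to maltose binding protein made in E. coli; potency of compounds blocking POS-1 binding to fluorescent RNA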
T7 sequence (G5EF15 whole entry): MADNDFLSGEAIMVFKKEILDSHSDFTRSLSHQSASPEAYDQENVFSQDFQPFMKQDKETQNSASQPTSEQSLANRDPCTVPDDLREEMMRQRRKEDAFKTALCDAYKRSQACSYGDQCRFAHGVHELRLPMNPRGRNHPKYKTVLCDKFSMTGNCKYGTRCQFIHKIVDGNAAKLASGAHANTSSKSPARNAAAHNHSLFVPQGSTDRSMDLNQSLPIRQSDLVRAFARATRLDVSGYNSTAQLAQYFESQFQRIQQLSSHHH

SUMO-activating enzyme [12] = biological target: T8, SUMO-activating enzyme (Homo sapiens, UniProt Q9UBT2); experiment: blockers of UBC9-mediated SUMO conjugation – biochemical, AlphaScreen, SUMOylation inhibitor project, confirmation (AID 2018); type: functional
[13] = biological target: T9, Zinc finger protein mex-5 (Caenorhabditis elegans, UniProt Q9XUB2); experiment: potency of MEX-5 RNA-binding blockers – biochemical, C. elegans, fluorescence polarization, dose response (AID 1960)
T9 sequence (Q9XUB2 whole entry): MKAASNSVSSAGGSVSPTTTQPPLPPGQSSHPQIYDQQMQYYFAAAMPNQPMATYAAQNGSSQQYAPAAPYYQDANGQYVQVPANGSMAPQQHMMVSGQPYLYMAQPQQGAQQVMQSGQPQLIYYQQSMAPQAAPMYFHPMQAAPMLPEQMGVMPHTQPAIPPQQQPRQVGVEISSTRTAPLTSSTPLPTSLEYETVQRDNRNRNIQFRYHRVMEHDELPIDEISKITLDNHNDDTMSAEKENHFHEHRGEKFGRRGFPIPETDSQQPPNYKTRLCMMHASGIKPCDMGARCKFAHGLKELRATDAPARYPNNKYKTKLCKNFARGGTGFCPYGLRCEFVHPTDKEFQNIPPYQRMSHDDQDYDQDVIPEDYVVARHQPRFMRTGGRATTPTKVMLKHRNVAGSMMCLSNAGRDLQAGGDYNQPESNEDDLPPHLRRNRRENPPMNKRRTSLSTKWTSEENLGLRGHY

SUMO-activating enzyme [14] = biological target: T8, SUMO-activating enzyme; experiment: blockers of SAE1/SAE2–UBC9 SUMO transfer – biochemical, HTRF, uHTS, primary screen (AID 2006); type: protein-complex assay
Cysteine protease ATG4B = biological target: T10, Cysteine protease ATG4B (Homo sapiens, UniProt Q9Y4P1); type: functional;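 also: Fluorescence-based dose-response confirmation assay measuring inhibition of ATG4B activity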
T10 sequence (Q9Y4P1 whole entry): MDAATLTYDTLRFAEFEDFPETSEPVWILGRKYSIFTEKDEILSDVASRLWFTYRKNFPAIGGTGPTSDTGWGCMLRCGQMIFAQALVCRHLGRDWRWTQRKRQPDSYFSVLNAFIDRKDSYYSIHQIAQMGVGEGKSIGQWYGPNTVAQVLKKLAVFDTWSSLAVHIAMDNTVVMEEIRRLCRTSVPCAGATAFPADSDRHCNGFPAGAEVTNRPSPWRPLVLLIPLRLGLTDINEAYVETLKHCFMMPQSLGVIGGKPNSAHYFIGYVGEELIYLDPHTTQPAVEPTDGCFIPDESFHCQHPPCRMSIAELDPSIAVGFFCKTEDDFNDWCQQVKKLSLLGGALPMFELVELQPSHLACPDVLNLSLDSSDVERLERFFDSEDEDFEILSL

Phospholipase A2 = Phospholipase A2 (Homo sapiens, UniProt P04054); type: functional;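 also: confirmatory dose-response counterscreen on phospholipase A2, testing hits that came from an ultra-high-throughput screen for ATG4B inhibitors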
[15] = biological target: T11, Carboxy-terminal domain RNA polymerase II polypeptide A small phosphatase 1 (Homo sapiens, UniProt Q9GZU7); experiment: CTDSP1 inhibitors, concentration-response, biochemical, absorbance readout, ultra-high-throughput screen actives (AID 540297); type: functional
T11 sequence (Q9GZU7 whole entry): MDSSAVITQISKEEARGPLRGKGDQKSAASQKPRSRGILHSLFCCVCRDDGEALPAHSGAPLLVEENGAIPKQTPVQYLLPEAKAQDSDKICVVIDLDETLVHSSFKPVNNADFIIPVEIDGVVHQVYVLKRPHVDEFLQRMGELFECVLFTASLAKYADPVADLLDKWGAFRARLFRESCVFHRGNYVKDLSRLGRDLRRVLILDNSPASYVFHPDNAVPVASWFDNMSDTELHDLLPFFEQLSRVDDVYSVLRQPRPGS

T3 sequence (P41145 whole entry): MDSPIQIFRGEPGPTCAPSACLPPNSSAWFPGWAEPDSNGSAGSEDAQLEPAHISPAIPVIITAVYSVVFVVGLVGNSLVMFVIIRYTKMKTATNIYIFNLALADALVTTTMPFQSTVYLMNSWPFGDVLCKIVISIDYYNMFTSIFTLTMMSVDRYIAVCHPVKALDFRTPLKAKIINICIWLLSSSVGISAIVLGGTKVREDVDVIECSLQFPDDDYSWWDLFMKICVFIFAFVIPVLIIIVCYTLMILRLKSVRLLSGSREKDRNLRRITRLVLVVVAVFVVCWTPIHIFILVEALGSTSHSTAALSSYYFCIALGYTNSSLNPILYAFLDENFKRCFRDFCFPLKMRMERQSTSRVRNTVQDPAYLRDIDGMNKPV
T8 sequence (Q9UBE0 whole entry): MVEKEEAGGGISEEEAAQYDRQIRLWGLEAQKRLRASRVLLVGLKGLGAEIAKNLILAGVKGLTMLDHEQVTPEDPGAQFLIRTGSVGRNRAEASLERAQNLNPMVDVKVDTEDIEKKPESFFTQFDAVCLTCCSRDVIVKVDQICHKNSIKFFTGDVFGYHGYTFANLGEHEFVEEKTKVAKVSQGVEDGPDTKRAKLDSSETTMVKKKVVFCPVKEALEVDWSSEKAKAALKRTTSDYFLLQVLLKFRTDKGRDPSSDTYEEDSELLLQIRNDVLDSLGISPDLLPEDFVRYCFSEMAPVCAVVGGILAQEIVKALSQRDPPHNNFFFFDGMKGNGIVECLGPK
T8 sequence (Q9UBT2 whole entry): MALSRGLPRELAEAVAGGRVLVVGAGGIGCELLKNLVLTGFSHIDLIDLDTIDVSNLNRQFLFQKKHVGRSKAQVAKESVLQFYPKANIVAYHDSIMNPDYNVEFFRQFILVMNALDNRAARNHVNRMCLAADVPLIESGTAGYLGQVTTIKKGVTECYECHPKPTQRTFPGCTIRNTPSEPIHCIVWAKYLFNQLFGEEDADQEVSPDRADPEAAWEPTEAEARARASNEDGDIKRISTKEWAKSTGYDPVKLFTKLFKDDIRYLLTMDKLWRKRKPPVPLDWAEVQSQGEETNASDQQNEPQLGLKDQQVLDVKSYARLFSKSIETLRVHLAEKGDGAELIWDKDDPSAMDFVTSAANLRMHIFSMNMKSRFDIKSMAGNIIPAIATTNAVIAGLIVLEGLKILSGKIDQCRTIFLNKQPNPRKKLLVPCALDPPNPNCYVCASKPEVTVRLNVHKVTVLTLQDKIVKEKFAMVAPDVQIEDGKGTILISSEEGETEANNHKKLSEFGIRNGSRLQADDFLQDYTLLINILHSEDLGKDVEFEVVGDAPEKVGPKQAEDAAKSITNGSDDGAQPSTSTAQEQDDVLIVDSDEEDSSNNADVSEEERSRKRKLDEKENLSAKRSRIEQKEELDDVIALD
Trypsin, sequence (P00761 whole entry): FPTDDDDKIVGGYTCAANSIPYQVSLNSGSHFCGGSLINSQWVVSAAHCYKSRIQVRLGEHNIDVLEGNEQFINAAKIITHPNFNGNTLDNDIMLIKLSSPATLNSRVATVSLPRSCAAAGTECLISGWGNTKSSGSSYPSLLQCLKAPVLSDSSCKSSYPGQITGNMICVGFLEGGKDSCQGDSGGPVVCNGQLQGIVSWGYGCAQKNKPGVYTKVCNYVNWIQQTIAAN
Delta-type opioid receptor, sequence (P41143 whole entry): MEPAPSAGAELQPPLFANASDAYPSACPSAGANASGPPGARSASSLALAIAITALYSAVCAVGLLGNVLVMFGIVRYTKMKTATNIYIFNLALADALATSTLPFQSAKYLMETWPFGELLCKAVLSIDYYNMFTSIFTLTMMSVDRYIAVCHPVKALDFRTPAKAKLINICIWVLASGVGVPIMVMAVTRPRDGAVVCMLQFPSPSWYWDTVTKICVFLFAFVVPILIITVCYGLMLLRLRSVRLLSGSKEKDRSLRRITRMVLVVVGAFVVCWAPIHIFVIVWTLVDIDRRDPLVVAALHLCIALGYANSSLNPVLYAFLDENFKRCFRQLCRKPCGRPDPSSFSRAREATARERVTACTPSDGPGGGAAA
Hexokinase, sequence (Q38C41 whole entry): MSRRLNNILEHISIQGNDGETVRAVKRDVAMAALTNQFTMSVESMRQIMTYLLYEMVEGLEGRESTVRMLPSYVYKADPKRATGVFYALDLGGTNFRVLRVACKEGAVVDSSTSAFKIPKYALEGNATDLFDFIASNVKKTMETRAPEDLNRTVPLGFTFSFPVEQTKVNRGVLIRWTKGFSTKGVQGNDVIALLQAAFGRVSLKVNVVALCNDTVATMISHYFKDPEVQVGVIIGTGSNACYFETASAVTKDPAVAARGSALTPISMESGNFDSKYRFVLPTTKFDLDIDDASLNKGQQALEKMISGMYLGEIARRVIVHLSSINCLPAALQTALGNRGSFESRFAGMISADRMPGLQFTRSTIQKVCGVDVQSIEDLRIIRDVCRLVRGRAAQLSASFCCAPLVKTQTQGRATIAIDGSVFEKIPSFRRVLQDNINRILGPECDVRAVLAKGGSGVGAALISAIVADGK
Mu-type opioid receptor, sequence (P35372 whole entry): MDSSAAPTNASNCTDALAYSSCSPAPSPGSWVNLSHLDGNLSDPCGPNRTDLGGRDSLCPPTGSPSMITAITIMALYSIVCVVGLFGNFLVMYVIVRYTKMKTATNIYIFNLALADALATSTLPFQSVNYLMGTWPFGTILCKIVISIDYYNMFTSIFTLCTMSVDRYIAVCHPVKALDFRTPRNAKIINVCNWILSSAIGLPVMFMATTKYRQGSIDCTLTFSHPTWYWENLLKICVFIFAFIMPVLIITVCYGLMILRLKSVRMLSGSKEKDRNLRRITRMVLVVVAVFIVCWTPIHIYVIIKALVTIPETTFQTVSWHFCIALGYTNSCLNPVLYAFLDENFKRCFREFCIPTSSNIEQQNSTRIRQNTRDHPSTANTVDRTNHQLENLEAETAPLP
Large T antigen, sequence (P03070 whole entry): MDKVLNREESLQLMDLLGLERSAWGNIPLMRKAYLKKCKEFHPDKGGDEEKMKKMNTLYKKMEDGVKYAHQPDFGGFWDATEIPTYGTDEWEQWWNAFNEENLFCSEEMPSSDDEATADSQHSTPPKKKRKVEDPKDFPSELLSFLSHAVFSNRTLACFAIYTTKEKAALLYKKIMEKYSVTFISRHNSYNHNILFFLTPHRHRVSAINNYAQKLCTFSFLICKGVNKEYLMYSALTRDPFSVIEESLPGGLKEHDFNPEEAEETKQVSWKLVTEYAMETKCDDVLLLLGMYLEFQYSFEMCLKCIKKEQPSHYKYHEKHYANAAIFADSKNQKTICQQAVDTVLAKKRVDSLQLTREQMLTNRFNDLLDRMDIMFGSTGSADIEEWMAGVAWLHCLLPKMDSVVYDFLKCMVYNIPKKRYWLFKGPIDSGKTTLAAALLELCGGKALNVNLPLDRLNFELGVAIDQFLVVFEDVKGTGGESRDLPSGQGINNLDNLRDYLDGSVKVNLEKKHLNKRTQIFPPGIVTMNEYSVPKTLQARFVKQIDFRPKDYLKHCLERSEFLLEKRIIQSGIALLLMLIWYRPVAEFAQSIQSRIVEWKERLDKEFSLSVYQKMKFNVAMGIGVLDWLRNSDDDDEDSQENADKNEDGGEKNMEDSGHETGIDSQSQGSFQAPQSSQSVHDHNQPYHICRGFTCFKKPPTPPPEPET
Induced myeloid leukemia cell differentiation protein Mcl-1, sequence (Q07820 whole entry): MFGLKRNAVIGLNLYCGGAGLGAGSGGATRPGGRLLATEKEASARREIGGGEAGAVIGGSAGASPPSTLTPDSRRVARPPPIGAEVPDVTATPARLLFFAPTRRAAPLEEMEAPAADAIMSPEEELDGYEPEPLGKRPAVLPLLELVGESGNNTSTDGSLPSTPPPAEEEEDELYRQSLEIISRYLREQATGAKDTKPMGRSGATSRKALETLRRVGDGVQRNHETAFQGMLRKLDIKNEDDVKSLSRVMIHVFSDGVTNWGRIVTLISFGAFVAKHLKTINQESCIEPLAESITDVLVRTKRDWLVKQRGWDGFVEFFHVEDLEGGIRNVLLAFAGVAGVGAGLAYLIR
ORF 73, sequence (O40947 whole entry): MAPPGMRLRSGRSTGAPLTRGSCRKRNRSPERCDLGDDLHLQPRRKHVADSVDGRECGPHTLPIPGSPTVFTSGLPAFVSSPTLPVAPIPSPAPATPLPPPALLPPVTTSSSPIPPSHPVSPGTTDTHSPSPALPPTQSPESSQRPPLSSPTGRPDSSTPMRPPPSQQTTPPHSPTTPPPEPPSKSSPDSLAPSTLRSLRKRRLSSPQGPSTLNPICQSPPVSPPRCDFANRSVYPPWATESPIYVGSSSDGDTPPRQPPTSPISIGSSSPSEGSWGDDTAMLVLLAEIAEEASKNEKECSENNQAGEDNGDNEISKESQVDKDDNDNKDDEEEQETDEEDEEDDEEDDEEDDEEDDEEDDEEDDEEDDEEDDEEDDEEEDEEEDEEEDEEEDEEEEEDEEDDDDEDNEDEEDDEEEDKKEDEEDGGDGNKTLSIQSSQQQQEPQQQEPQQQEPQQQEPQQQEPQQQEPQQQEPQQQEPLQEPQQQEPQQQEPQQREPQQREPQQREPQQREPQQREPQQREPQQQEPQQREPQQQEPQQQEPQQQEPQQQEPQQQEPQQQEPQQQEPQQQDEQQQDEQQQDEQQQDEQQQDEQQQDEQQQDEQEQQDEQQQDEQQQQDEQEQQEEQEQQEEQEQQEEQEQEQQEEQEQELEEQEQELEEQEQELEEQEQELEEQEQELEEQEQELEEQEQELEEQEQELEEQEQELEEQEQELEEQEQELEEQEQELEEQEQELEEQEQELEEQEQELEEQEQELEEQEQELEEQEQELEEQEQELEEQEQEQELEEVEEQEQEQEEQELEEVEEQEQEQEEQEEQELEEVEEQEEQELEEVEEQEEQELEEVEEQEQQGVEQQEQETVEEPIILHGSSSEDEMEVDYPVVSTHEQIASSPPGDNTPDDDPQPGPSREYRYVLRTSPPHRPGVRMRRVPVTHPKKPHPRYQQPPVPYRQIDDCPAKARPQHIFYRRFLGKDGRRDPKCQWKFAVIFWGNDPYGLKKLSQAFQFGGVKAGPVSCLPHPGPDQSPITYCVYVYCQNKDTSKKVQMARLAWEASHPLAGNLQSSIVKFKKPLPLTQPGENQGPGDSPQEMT

## COc1cc(C(=S)NC(C)(C)C)ccc1O
[1]
  IC50: 13.1 µM (active)
[2]
  IC50: > 100 µM (inactive)

## O=C(Cn1sc2ccccc2c1=O)Nc1ccccc1C(F)(F)F
Hexokinase
  IC50: > 25 µM (inactive)

## COc1ccc(N2CCN(CCNC(=O)Cn3c(=O)c4cccn4c4c(C)ccnc43)CC2)cc1
Mu-type opioid receptor
  IC50: > 32 µM (inactive)
[3]
  IC50: 14.1 µM (inactive)
[4]
  IC50: > 32 µM (inactive)
[5]
  IC50: > 32 µM (inactive)

## Cc1cc(C)n2cc(CSCC(=O)O)nc2n1
Trypsin
  AC50: 12 µM (active)
CAAX prenyl protease 2
  AC50: 12.1 µM (active)

## O=C(O)Cc1c[nH]c2cccc(O)c12
Large T antigen
  IC50: 23.1 µM (active)
[6]
  IC50: 4.87 µM (active)
ORF 73
  AC50: 22.1 µM (active)
[7]
  IC50: 6.74 µM (active)
Caspase-6
  AC50: 11.1 µM (active)

## O=C(NCCc1cccnc1)c1cc(COc2ccc(F)cc2Cl)on1
Trypsin
  AC50: 8.75 µM (active)
CAAX prenyl protease 2
  AC50: 10.7 µM (active)

## Cc1ccc(Cl)cc1N1CCN(C(=O)c2ccc3c(c2)CCN3S(C)(=O)=O)CC1
[8]
  IC50: 23.5 µM (not active)
[9]
  IC50: 16.9 µM (not active)
[10]
  EC50: 21 µM (inactive)

## COc1cccc(CC(=O)Nc2cc(Cl)ccc2C(=O)O)c1
Hexokinase
  IC50: > 25 µM (inactive)

## Cc1ccccc1NC(=O)CN1C(=O)S/C(=C\c2ccc(-c3cc(C(=O)O)ccc3C)o2)C1=O
[11]
  EC50: 2.41 µM (active)
SUMO-activating enzyme [12]
  IC50: 2.85 µM (active)
[13]
  EC50: 1.68 µM (active)
SUMO-activating enzyme [14]
  IC50: 9.45 µM (active)
Cysteine protease ATG4B
  IC50: 2.05 µM (active)
Phospholipase A2
  IC50: 1.77 µM (active)
[15]
  IC50: 1.44 µM (active)

## CCC(CC)NC(=S)c1ccc(O)c(OC)c1
[1]
  IC50: 0.766 µM (active)
[2]
  IC50: > 100 µM (inactive)

## CCC(C)c1ccc(S(=O)(=O)NCc2ccc(C(=O)NCCN(Cc3ccccc3)C(C)C)cc2)cc1 (stereo not drawn)
Mu-type opioid receptor
  IC50: > 32 µM (inactive)
[3]
  IC50: 1.6 µM (active)
[4]
  IC50: > 32 µM (inactive)
[5]
  IC50: 2.01 µM (active)
